From PubChem BioAssay AID248 (DTP/NCI, 2004)
Where “and” joins values, the source holds several entries; their conditions need not be identical. Equal entries are not always repeated. Inconclusive results and toxic doses are left out. No stated cut-off is given here; in the data, active means T/C of 150% or more; inactive means T/C below 125%. Peptide text beside a SMILES is read from it.

Test system: L1210 leukemia ip in BDF1 mice, survival T/C
Assay: NCI In Vivo Anticancer Drug Screen. Data for tumor model L1210 Leukemia (intraperitoneal) in B6D2F1 (BDF1) mice
Conditions: endpoint: mean survival time, higher = longer survival
Method in brief: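 Survival endpoint. Drug-treated group vs vehicle group, expressed as T divided by C. Tumor passaged by transplantation.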

[1] = dose: 50.0 mg/kg/injection, schedule: Q01DX009 (ip), vehicle: saline with Tween-80
[2] = dose: 50.0 mg/kg/injection, schedule: Q04DX003 (ip), vehicle: saline with Tween-80
[3] = dose: 100.0 mg/kg/injection, schedule: Q01DX009 (ip), vehicle: saline with Tween-80
[4] = dose: 200.0 mg/kg/injection, schedule: Q01DX009 (ip), vehicle: saline with Tween-80
[5] = dose: 200.0 mg/kg/injection, schedule: Q04DX003 (ip), vehicle: saline with Tween-80
[6] = dose: 100.0 mg/kg/injection, schedule: Q01DX001 (ip), vehicle: saline
[7] = dose: 200.0 mg/kg/injection, schedule: Q01DX001 (ip), vehicle: saline
[8] = dose: 100.0 mg/kg/injection, schedule: Q04DX003 (ip), vehicle: saline with Tween-80
[9] = dose: 400.0 mg/kg/injection, schedule: Q04DX003 (ip), vehicle: saline with Tween-80
[10] = dose: 100.0 mg/kg/injection, schedule: Q04DX003 (ip), vehicle: saline
[11] = dose: 200.0 mg/kg/injection, schedule: Q04DX003 (ip), vehicle: saline
[12] = dose: 400.0 mg/kg/injection, schedule: Q04DX003 (ip), vehicle: saline

Measured: T/C

CCOC(=O)c1ccc(NC(=O)Nc2ccc(NC(C)=O)cc2)cc1
inactive: dose: 25.0 mg/kg/injection, schedule: Q01DX009 (ip), vehicle: saline with Tween-80 89 % of control | dose: 25.0 mg/kg/injection, schedule: Q04DX002 (ip), vehicle: saline with Tween-80 86 % of control | dose: 25.0 mg/kg/injection, schedule: Q04DX003 (ip), vehicle: saline with Tween-80 88 % of control | dose: 50.0 mg/kg/injection, schedule: Q01DX001 (ip), vehicle: saline with Tween-80 88 % of control | [1] 89 % of control | dose: 50.0 mg/kg/injection, schedule: Q04DX002 (ip), vehicle: saline with Tween-80 86 % of control and 88 % of control | [2] 86 % of control | dose: 100.0 mg/kg/injection, schedule: Q01DX001 (ip), vehicle: saline with Tween-80 88 % of control | [3] 91 % of control | dose: 200.0 mg/kg/injection, schedule: Q01DX001 (ip), vehicle: saline with Tween-80 93 % of control | [4] 91 % of control | dose: 200.0 mg/kg/injection, schedule: Q04DX002 (ip), vehicle: saline with Tween-80 99 % of control | [5] 90 % of control | dose: 400.0 mg/kg/injection, schedule: Q04DX002 (ip), vehicle: saline with Tween-80 106 % of control

COc1cccc(/C(C)=N\OC(=O)N(C)C)c1
inactive: dose: 100.0 mg/kg/injection, schedule: Q01DX001 (ip), vehicle: carboxymethylcellulose (CMC) 95 % of control | dose: 200.0 mg/kg/injection, schedule: Q01DX001 (ip), vehicle: carboxymethylcellulose (CMC) 95 % of control | dose: 400.0 mg/kg/injection, schedule: Q01DX001 (ip), vehicle: carboxymethylcellulose (CMC) 98 % of control

NC1C(=O)Nc2cc(O)c(C(=O)O)cc21 (stereo not given)
inactive: dose: 100.0 mg/kg/injection, schedule: Q01DX001 (ip), vehicle: gum acacia 100 % of control | dose: 200.0 mg/kg/injection, schedule: Q01DX001 (ip), vehicle: gum acacia 100 % of control | dose: 400.0 mg/kg/injection, schedule: Q01DX001 (ip), vehicle: gum acacia 97 % of control

CNc1cc(C(=O)O)nc(NC)n1
inactive: dose: 25.0 mg/kg/injection, schedule: Q01DX Z (ip), vehicle: saline 102 % of control | dose: 50.0 mg/kg/injection, schedule: Q01DX Z (ip), vehicle: saline 98 % of control

CC(NC(=O)C(CCC(=O)NCC(=O)O)NC(=O)C(N)Cc1ccc(O)cc1)C(=O)NCC(=O)NC(Cc1ccc(O)cc1)C(=O)NC(CCC(=O)NCC(=O)O)C(=O)NC(C)C(=O)NCC(=O)NCC(=O)O (stereo not given) (H-YE(Gly)AGYE(Gly)AGG-OH; configuration not given here)
inactive: dose: 50.0 mg/kg/injection, schedule: Q01DX001 (ip), vehicle: saline 92 % of control | [6] 92 % of control | [7] 93 % of control

Cn1c(Cl)c(C=O)c2ccccc21
inactive: dose: 50.0 mg/kg/injection, schedule: Q04DX002 (ip), vehicle: Klucel (hydroxypropylcellulose) (HPC) 90 % of control | dose: 100.0 mg/kg/injection, schedule: Q04DX002 (ip), vehicle: Klucel (hydroxypropylcellulose) (HPC) 93 % of control | dose: 200.0 mg/kg/injection, schedule: Q04DX002 (ip), vehicle: Klucel (hydroxypropylcellulose) (HPC) 97 % of control

O=C(CC(O)(C(F)(F)Cl)C(F)(F)Cl)c1cccc([N+](=O)[O-])c1
inactive: [1] 98 % of control | [2] 98 % of control | [3] 98 % of control | [8] 98 % of control | [4] 95 % of control | [5] 98 % of control | [9] 89 % of control

COC(=O)CCC(=O)c1ccc(OC)cc1
inactive: dose: 100.0 mg/kg/injection, schedule: Q01DX009 (ip), vehicle: Klucel (hydroxypropylcellulose) (HPC) 94 % of control | dose: 200.0 mg/kg/injection, schedule: Q01DX009 (ip), vehicle: Klucel (hydroxypropylcellulose) (HPC) 100 % of control | dose: 400.0 mg/kg/injection, schedule: Q01DX009 (ip), vehicle: Klucel (hydroxypropylcellulose) (HPC) 96 % of control

O=S(=O)(O)SCCN1CCCCCCC1
inactive: dose: 100.0 mg/kg/injection, schedule: Q01DX009 (ip), vehicle: saline 95 % of control

CCCN(CCC)C(=S)[S-].CCCN(CCC)C(=S)[S-].[Zn]
inactive: dose: 100.0 mg/kg/injection, schedule: Q04DX003 (ip), vehicle: saline sonified 100 % of control | dose: 200.0 mg/kg/injection, schedule: Q04DX003 (ip), vehicle: saline sonified 91 % of control | dose: 400.0 mg/kg/injection, schedule: Q04DX003 (ip), vehicle: saline sonified 86 % of control

CCCCCCCCCCCCCCCCCCCCCCCCC
inactive: dose: 100.0 mg/kg/injection, schedule: Q04DX003 (ip), vehicle: Klucel (hydroxypropylcellulose) (HPC) 91 % of control | dose: 200.0 mg/kg/injection, schedule: Q04DX003 (ip), vehicle: Klucel (hydroxypropylcellulose) (HPC) 89 % of control | dose: 400.0 mg/kg/injection, schedule: Q04DX003 (ip), vehicle: Klucel (hydroxypropylcellulose) (HPC) 87 % of control

COC(=O)C1=C(C(=O)OC)C2(OC(C)=O)C=C(OC(C)=O)C1C(C)(C)C2 (stereo not given)
inactive: [6] 94 % of control | dose: 100.0 mg/kg/injection, schedule: Q01DX009 (ip), vehicle: acetone 93 % of control | [10] 111 % of control | [7] 102 % of control | dose: 200.0 mg/kg/injection, schedule: Q01DX009 (ip), vehicle: acetone 90 % of control | [11] 103 % of control | dose: 400.0 mg/kg/injection, schedule: Q01DX001 (ip), vehicle: saline 102 % of control | dose: 400.0 mg/kg/injection, schedule: Q01DX009 (ip), vehicle: acetone 88 % of control | [12] 104 % of control

NC(CC[Se]CC(N)C(=O)O)C(=O)O (stereo not given)
inactive: dose: 0.5 mg/kg/injection, schedule: Q01DX009 (ip), vehicle: acetone 110 % of control | dose: 1.0 mg/kg/injection, schedule: Q01DX009 (ip), vehicle: acetone 103 % of control | dose: 2.0 mg/kg/injection, schedule: Q01DX009 (ip), vehicle: acetone 95 % of control | dose: 4.0 mg/kg/injection, schedule: Q01DX009 (ip), vehicle: acetone 108 % of control

Cc1ccc(S(=O)(=O)Nc2ccccc2-c2nc3c(Cl)ccc(Cl)c3c(=O)o2)cc1
inactive: dose: 100.0 mg/kg/injection, schedule: Q01DX009 (ip), vehicle: other 105 % of control | [10] 88 % of control | dose: 200.0 mg/kg/injection, schedule: Q01DX009 (ip), vehicle: other 96 % of control | [11] 93 % of control | dose: 400.0 mg/kg/injection, schedule: Q01DX009 (ip), vehicle: other 104 % of control | [12] 90 % of control

OC(CN1CCN(c2ccccc2)CC1)c1cc2ccccc2o1 (stereo not given)
inactive: [8] 104 % of control | [5] 94 % of control | [9] 94 % of control

CC1(NO)CCCCC1
inactive: dose: 100.0 mg/kg/injection, schedule: Q01DX001 (ip), vehicle: Klucel (hydroxypropylcellulose) (HPC) 100 % of control | dose: 200.0 mg/kg/injection, schedule: Q01DX001 (ip), vehicle: Klucel (hydroxypropylcellulose) (HPC) 94 % of control

CCOC(=O)C(=O)Cc1cnccn1
inactive: dose: 100.0 mg/kg/injection, schedule: Q01DX001 (ip), vehicle: other 101 % of control and 108 % of control | dose: 200.0 mg/kg/injection, schedule: Q01DX001 (ip), vehicle: other 100 % of control and 101 % of control | dose: 400.0 mg/kg/injection, schedule: Q01DX001 (ip), vehicle: other 97 % of control

CCCCOc1ccc(S(=O)(=O)c2ccc(OCCCC)c([N+](=O)[O-])c2)cc1[N+](=O)[O-]
inactive: dose: 75.0 mg/kg/injection, schedule: Q04DX002 (ip), vehicle: gum acacia 97 % of control | dose: 150.0 mg/kg/injection, schedule: Q04DX002 (ip), vehicle: gum acacia 97 % of control | dose: 300.0 mg/kg/injection, schedule: Q04DX002 (ip), vehicle: gum acacia 97 % of control
